According to patent US20260091020A1, “TREATMENT OF ACUTE CANNABINOID OVERDOSE” (Anebulo Pharmaceuticals, Inc., priority 2022, published 2026):

Columns and labels:
Assay type in all cases: cell-based
[1] = target: T1, CB1 [CNR1] (Homo sapiens, UniProt P21554); assay: PathHunter GPCR Biosensor cAMP assay, CNR1 antagonist mode; conditions: for IC50: Gi cAMP, 20 μM Forskolin, EC80 0.0012 μM CP55940; for CB1 vs CB2 selectivity and mode of action (in words): conclusion from Table 7
Method: (§1) Compounds 2 and 3 were evaluated for activity against CB1 [CNR1] and CB2 [CNR2], both as agonists or as antagonists using the PathHunter GPCR Biosensor (Eurofins Discovery X, Fremont CA). For agonist assays, data was normalized to the maximal and minimal response observed in the presence of control ligand and vehicle. For antagonist assays, data was normalized to the maximal and minimal response observed in the presence of EC80 ligand and vehicle. The following EC80 concentrations were used: CNR1 cAMP: 0.0012 μM CP55940; CNR2 cAMP: 0.0048 μM CP55940. For Gi cAMP assays, the following forskolin concentration was used: CNR1 cAMP: 20 μM Forskolin; CNR2 cAMP: 25 μM Forskolin.

[2] = target: T2, CB2 [CNR2] (Homo sapiens, UniProt P34972); assay: PathHunter GPCR Biosensor cAMP assay, CNR2 antagonist mode; conditions: Gi cAMP, 25 μM Forskolin; EC80 0.0048 μM CP55940
Method: as §1

[3] = target: T2, CB2 [CNR2]; assay: PathHunter GPCR Biosensor cAMP assay, CNR2 agonist mode; conditions: Gi cAMP, 25 μM Forskolin
Method: as §1

[4] = target: T1, CB1 [CNR1]; assay: PathHunter GPCR Biosensor cAMP assay, CNR1 agonist mode; conditions: Gi cAMP, 20 μM Forskolin
Method: as §1

T2 sequence (P34972 whole entry): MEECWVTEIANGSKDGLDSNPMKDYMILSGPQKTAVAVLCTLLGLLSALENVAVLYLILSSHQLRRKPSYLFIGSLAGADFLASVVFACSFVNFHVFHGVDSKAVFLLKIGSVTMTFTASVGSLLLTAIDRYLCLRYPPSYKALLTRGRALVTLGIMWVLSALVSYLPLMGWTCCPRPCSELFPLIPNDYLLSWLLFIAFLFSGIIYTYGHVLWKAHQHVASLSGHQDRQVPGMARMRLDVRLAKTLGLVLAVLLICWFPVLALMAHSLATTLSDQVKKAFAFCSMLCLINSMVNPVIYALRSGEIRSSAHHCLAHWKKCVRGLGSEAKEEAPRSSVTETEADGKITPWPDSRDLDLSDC
T1 sequence (P21554 whole entry): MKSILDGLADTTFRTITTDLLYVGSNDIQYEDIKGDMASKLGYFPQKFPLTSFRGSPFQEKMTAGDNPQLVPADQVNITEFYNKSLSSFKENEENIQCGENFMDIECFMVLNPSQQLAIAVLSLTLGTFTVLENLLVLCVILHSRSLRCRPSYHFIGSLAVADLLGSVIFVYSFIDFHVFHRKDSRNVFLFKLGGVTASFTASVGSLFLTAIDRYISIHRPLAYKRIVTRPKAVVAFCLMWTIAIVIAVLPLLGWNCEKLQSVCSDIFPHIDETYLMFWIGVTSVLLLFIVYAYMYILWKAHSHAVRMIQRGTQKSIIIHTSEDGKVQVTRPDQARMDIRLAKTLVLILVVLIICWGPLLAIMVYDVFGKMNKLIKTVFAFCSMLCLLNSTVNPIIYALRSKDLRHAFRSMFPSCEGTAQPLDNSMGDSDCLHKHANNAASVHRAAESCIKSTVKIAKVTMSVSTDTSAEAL

IC50 [1]	CB1 vs CB2 selectivity and mode of action (in words) [1]	IC50 [2]	EC50 [3]	EC50 [4]	Structure (SMILES)
383 nM	selective CB1 antagonists	> 1000 nM	> 1000 nM	> 1000 nM	CC(C)(NC(=O)N1CC(OC(c2ccc(Cl)cc2)c2ccccc2C(F)(F)F)C1)C(=O)O (stereo not shown) [Compound 3, 2-(3-((4-chlorophenyl)(2-(trifluoromethyl)phenyl)methoxy)azetidine-1-carboxamido)-2-methylpropanoic acid]
45.6 nM	selective CB1 antagonists	> 1000 nM	> 1000 nM	> 1000 nM	CC(C)(CO)NC(=O)N1CC(OC(c2ccc(Cl)cc2)c2ccccc2C(F)(F)F)C1 (stereo not shown) [Compound 2, 3-((4-chlorophenyl)(2-(trifluoromethyl)phenyl)methoxy)-N-(1-hydroxy-2-methylpropan-2-yl)azetidine-1-carboxamide]
